According to ChEMBL document CHEMBL1146116, “N-thiolated 2-oxazolidinones: a new family of antibacterial agents for methicillin-resistant Staphylococcus aureus and Bacillus anthracis” (2006):
In brackets after ≈: the same amount, converted by molar mass.

Tests used:
Assay type in all cases: functional
Staphylococcus aureus [1] = experiment: Antibacterial activity against methicillin-resistant Staphylococcus aureus USF655 by agar disk diffusion method
Staphylococcus aureus [2] = experiment: Antibacterial activity against Staphylococcus aureus 849 ATCC 25923 by agar disk diffusion method
Staphylococcus aureus [3] = experiment: Antibacterial activity against methicillin-resistant Staphylococcus aureus USF653 by agar disk diffusion method
Staphylococcus aureus [4] = experiment: Antibacterial activity against methicillin-resistant Staphylococcus aureus USF659 by agar disk diffusion method
Staphylococcus aureus [5] = experiment: Antibacterial activity against methicillin-resistant Staphylococcus aureus USF652 by agar disk diffusion method
Staphylococcus aureus [6] = experiment: Antibacterial activity against methicillin-resistant Staphylococcus aureus USF657 by agar disk diffusion method
Staphylococcus aureus [7] = experiment: Antibacterial activity against methicillin-resistant Staphylococcus aureus USF658 by agar disk diffusion method
Staphylococcus aureus [8] = experiment: Antibacterial activity against methicillin-resistant Staphylococcus aureus USF654 by agar disk diffusion method
Staphylococcus aureus [9] = experiment: Antibacterial activity against methicillin-resistant Staphylococcus aureus USF656 by agar disk diffusion method
Staphylococcus aureus [10] = experiment: Antibacterial activity against methicillin-resistant Staphylococcus aureus USF920 ATCC 33591 by agar disk diffusion method
Staphylococcus aureus [11] = experiment: Antibacterial activity against methicillin-resistant Staphylococcus aureus USF919 ATCC 43300 by agar disk diffusion method
Bacillus thuringiensis = experiment: Antibacterial activity against Bacillus thuringiensis by agar disk diffusion method
Bacillus subtilis [12] = experiment: Antibacterial activity against Bacillus subtilis by agar disk diffusion method
Bacillus subtilis [13] = experiment: Antibacterial activity against Bacillus globigii by agar disk diffusion method
Priestia megaterium = experiment: Antibacterial activity against Bacillus megaterium by agar disk diffusion method
Heyndrickxia coagulans = experiment: Antibacterial activity against Bacillus coagulans by agar disk diffusion method
Bacillus cereus = experiment: Antibacterial activity against Bacillus cereus by agar disk diffusion method
Staphylococcus aureus [14] = experiment: Antibacterial activity against methicillin-resistant Staphylococcus aureus
Staphylococcus aureus [15] = experiment: Antibacterial activity against Staphylococcus aureus

Row | SMILES | inhibition zone (IZ) (Staphylococcus aureus [1]) | inhibition zone (IZ) (Staphylococcus aureus [2]) | inhibition zone (IZ) (Staphylococcus aureus [3]) | inhibition zone (IZ) (Staphylococcus aureus [4]) | inhibition zone (IZ) (Staphylococcus aureus [5]) | inhibition zone (IZ) (Staphylococcus aureus [6]) | inhibition zone (IZ) (Staphylococcus aureus [7]) | inhibition zone (IZ) (Staphylococcus aureus [8]) | inhibition zone (IZ) (Staphylococcus aureus [9]) | inhibition zone (IZ) (Staphylococcus aureus [10]) | inhibition zone (IZ) (Staphylococcus aureus [11]) | inhibition zone (IZ) (Bacillus thuringiensis) | inhibition zone (IZ) (Bacillus subtilis [12]) | inhibition zone (IZ) (Bacillus subtilis [13]) | inhibition zone (IZ) (Priestia megaterium) | inhibition zone (IZ) (Heyndrickxia coagulans) | inhibition zone (IZ) (Bacillus cereus) | MIC (Staphylococcus aureus [14]) | MIC (Staphylococcus aureus [15])
1 | CO[C@H]1C(=O)N(SC)[C@H]1c1ccccc1 | 25 mm | 25 mm | 30 mm | 24 mm | 30 mm | 27 mm | 26 mm | 26 mm | 28 mm | – | – | – | – | – | – | – | – | – | –
2 | CSN1CC(CCl)OC1=O (stereo not given) | 20 mm | 21 mm | 20 mm | 19 mm | 16 mm | 21 mm | 18 mm | 20 mm | 22 mm | 16 mm | 20 mm | – | – | – | – | – | – | – | –
3 | CSN1C(=O)OC[C@H]1C(C)C | 18 mm | 21 mm | 25 mm | 22 mm | 12 mm | 19 mm | 19 mm | 20 mm | 20 mm | 15 mm | 13 mm | 0 mm | 19 mm | 17 mm | 10 mm | 0 mm | 15 mm | – | –
4 | CSN1C(=O)OC[C@@H]1c1ccccc1 | 29 mm | 30 mm | 31 mm | 26 mm | 30 mm | 29 mm | 29 mm | 29 mm | 31 mm | 28 mm | 30 mm | 17 mm | 19 mm | 15 mm | 18 mm | 17 mm | 24 mm | – | –
5 | CSN1C(=O)OC[C@H]1c1ccccc1 | 28 mm | 29 mm | 30 mm | 26 mm | 30 mm | 27 mm | 27 mm | 26 mm | 28 mm | 28 mm | 28 mm | 15 mm | 19 mm | 17 mm | 20 mm | 17 mm | 23 mm | 8 µg/mL (≈ 38.2 µM) | 8 µg/mL (≈ 38.2 µM)
6 | CSN1C(=O)O[C@@H](CN=[N+]=[N-])[C@@H]1c1ccccc1 | 30 mm | 31 mm | 32 mm | 28 mm | 30 mm | 30 mm | 31 mm | 30 mm | 31 mm | 32 mm | 32 mm | – | – | – | – | – | – | – | –
7 | CSN1C(=O)OC[C@@H]1C(C)C | 22 mm | 20 mm | 27 mm | 22 mm | 19 mm | 22 mm | 16 mm | 23 mm | 22 mm | 18 mm | 21 mm | 16 mm | 17 mm | 15 mm | 18 mm | 17 mm | 22 mm | 16 µg/mL (≈ 91.3 µM) | 16 µg/mL (≈ 91.3 µM)
8 | COC(=O)[C@@H]1OC(=O)N(SC)[C@H]1c1ccccc1 | 14 mm | 16 mm | 19 mm | 16 mm | 12 mm | 12 mm | 14 mm | 14 mm | 15 mm | 0 mm | 11 mm | – | – | – | – | – | – | – | –
9 | CSN1C(=O)OCC1Cc1ccccc1 (stereo not given) | 17 mm | 17 mm | 20 mm | 19 mm | 17 mm | 19 mm | 17 mm | 18 mm | 19 mm | 19 mm | 19 mm | – | – | – | – | – | – | – | –
10 | CCC(C)SN1CC(CCl)OC1=O (stereo not given) | 22 mm | 19 mm | 20 mm | 20 mm | 19 mm | 22 mm | 21 mm | 22 mm | 20 mm | 19 mm | 19 mm | – | – | – | – | – | – | – | –
11 | CC1(C)S[C@@H]2[C@H](NC(=O)Cc3ccccc3)C(=O)N2[C@H]1C(=O)O [PENICILLIN G] | 14 mm | 33 mm | 15 mm | 16 mm | 8 mm | 12 mm | 19 mm | 10 mm | 12 mm | – | – | – | – | – | – | – | – | – | –
